In the supplement of paper PMC11208160:

Assay: recombinant barcode read abundance after kanamycin selection (control-corrected) (log10(CPM+1)); higher = more efficient recombination; sequences stand for … in AGTGCAGAGAAAATCGGCCAGTTTTCTCTGCCTGCAGTCCGCATGCCGT…AGATTTATGCAGCGGACTGCCTTTCTCCCAAAGTGATAAACCGGACAGTATCATGGACCGGTTTTCCCGGTAATCCGTATTTGCAAGGTTGGTTTCACT; site = the 11-nt target
Method in brief: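 Recombination efficiency comes from barcode counts at recombinant junctions, converted to counts per million, averaged and corrected against the control. Values appear as log10(CPM+1). They were obtained from a pooled E. coli screen in which each oligo paired a target with an IS621 bridge RNA target-binding loop, and cells were plated in duplicate on chloramphenicol/ampicillin LB agar or on chloramphenicol/ampicillin/kanamycin with 0.1 mM IPTG.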
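Further: IS621 recombinase and bridge RNA in Escherichia coli cells.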

Compared with “CAACCGCCTTGGGTTCTAACCTGTTGCCT (site CAACCGGCTAG)”, “CAACCGCCTTGGGTTCTAACCTGTTGCCT (site CAACCGTCTAG)” is higher in “recombinant barcode read abundance (log10)” value: 0.402 for the first, 0.864 for the second.

Compared with “CAACCTACTTGGGTTCTAACCTGTTGCCT (site CAACCTACTAG)”, “CAACCTACTTGGGTTCTAACCTGTTGCCT (site CAATCTACTAG)” is lower in “recombinant barcode read abundance (log10)” value: 0.586 for the first, 0.121 for the second.

Compared with “CAACTTCCTTGGGTTCTAACCTGTTGCGT (site CAACTTCCTAC)”, “CAACTTCCTTGGGTTCTAACCTGTTGCGT (site CGGCTTCCTAC)” is lower in “recombinant barcode read abundance (log10)” value: 1.18 for the first, 0.496 for the second.

“CAAGACGCTTGGGTTCTAACCTGTTGCCT (site CAAGACGCTAG)” and “CAAGACGCTTGGGTTCTAACCTGTTGCCT (site CTAGACGCTAG)” are within 0.2 log units of each other in “recombinant barcode read abundance (log10)” value: 1.4 for the first, 1.34 for the second.

First: CAAGATGCTTGGGTTCTAACCTGTTGCCT (site CAAGATGCTAG)
Second: CAAGATGCTTGGGTTCTAACCTGTTGCCT (site CACGATGCTAG)
The “recombinant barcode read abundance (log10)” value of the first is higher: 1.21 for the first, 0.304 for the second.

“CAAGATGCTTGGGTTCTAACCTGTTGCCT (site CAGGATGCTAG)” and “CAAGATGCTTGGGTTCTAACCTGTTGCCT (site CATGATGCTAG)” are within 0.2 log units of each other in “recombinant barcode read abundance (log10)” value: 0.222 for the first, 0.366 for the second.

Compared with “CAAGATTCTTGGGTTCTAACCTGTTGCCT (site CAAGATTCTAG)”, “CAAGATTCTTGGGTTCTAACCTGTTGCCT (site CCAGATTCTAG)” is lower in “recombinant barcode read abundance (log10)” value: 1.69 for the first, 0.71 for the second.

First: CAAGATTCTTGGGTTCTAACCTGTTGCCT (site CGAGATTCTAG)
Second: CAAGATTCTTGGGTTCTAACCTGTTGCCT (site CTAGATTCTAG)
The “recombinant barcode read abundance (log10)” value of the first is lower: 0 for the first, 0.6 for the second.

First: CAAGTGACTTGGGTTCTAACCTGTTGCCT (site CAAGTGACTAG)
Second: CAAGTGACTTGGGTTCTAACCTGTTGCCT (site TCCTATGCTTA)
The “recombinant barcode read abundance (log10)” value of the first is higher: 1.68 for the first, 0.129 for the second.

Going from “CAAGTGCCTTGGGTTCTAACCTGTTGCCT (site CAAGTGCCTAG)” to “CAAGTGCCTTGGGTTCTAACCTGTTGCCT (site CAAGTTCCTAG)”, the “recombinant barcode read abundance (log10)” value falls from 2.01 to 0.064.

Going from “CAAGTTCCTTGGGTTCTAACCTGTTGCCT (site CAAGTGCCTAG)” to “CAAGTTCCTTGGGTTCTAACCTGTTGCCT (site CAAGTTCCTAG)”, the “recombinant barcode read abundance (log10)” value rises from 0.62 to 1.03.

First: CAATACACTTGGGTTCTAACCTGTTGCCT (site CAATACACTAG)
Second: CAATACACTTGGGTTCTAACCTGTTGCCT (site CCACACACTAG)
The “recombinant barcode read abundance (log10)” value of the first is higher: 2.34 for the first, 0.0608 for the second.

Going from “CAATCGTCTTGGGTTCTAACCTGTTGCTT (site CAATCGTCTAA)” to “CAATCGTCTTGGGTTCTAACCTGTTGCTT (site GAATCTTCTAA)”, the “recombinant barcode read abundance (log10)” value falls from 0.629 to 0.0659.

Compared with “CAATCTGCTTGGGTTCTAACCTGTTGCCT (site CAATCTGCTAG)”, “CAATCTGCTTGGGTTCTAACCTGTTGCCT (site CACTCTGCTAG)” is lower in “recombinant barcode read abundance (log10)” value: 0.233 for the first, 0.0111 for the second.

“CAATCTGCTTGGGTTCTAACCTGTTGCCT (site CAGTCTGCTAG)” and “CAATCTGCTTGGGTTCTAACCTGTTGCCT (site CATTCTGCTAG)” are within 0.2 log units of each other in “recombinant barcode read abundance (log10)” value: 0.101 for the first, 0.0288 for the second.

Going from “CAATGCTCTTGGGTTCTAACCTGTTGCCT (site CAATGCTCTAG)” to “CAATGCTCTTGGGTTCTAACCTGTTGCCT (site CAGTGCTCTTG)”, the “recombinant barcode read abundance (log10)” value falls from 1.84 to 0.113.

First: CAATGGACTTGGGTTCTAACCTGTTGCCT (site CAATGGACTAG)
Second: CAATGGACTTGGGTTCTAACCTGTTGCCT (site CACTGGACTAG)
The “recombinant barcode read abundance (log10)” value of the first is higher: 1.12 for the first, 0.0334 for the second.

“CAATGGACTTGGGTTCTAACCTGTTGCCT (site CAGTGGACTAG)” and “CAATGGACTTGGGTTCTAACCTGTTGCCT (site CATTGGACTAG)” are within 0.2 log units of each other in “recombinant barcode read abundance (log10)” value: 0.106 for the first, 0.103 for the second.

First: CAATGGTCTTGGGTTCTAACCTGTTGCTT (site CAATGGTCTAA)
Second: CAATGGTCTTGGGTTCTAACCTGTTGCTT (site CAATGGTCTAC)
The “recombinant barcode read abundance (log10)” value of the first is higher: 1.86 for the first, 1.64 for the second.

“CAATGGTCTTGGGTTCTAACCTGTTGCTT (site CAATGGTCTAG)” and “CAATGGTCTTGGGTTCTAACCTGTTGCTT (site CAATGGTCTAT)” are within 0.2 log units of each other in “recombinant barcode read abundance (log10)” value: 1.07 for the first, 1.14 for the second.

Going from “CAATTTCCTTGGGTTCTAACCTGTTGCAT (site CAATTTCCTAT)” to “CAATTTCCTTGGGTTCTAACCTGTTGCAT (site GCCAGCTCTCA)”, the “recombinant barcode read abundance (log10)” value falls from 0.322 to 0.0829.

Going from “CACACGACTTGGGTTCTAACCTGTTGCTT (site CACACGACTAA)” to “CACACGACTTGGGTTCTAACCTGTTGCTT (site TGGTTACCTCC)”, the “recombinant barcode read abundance (log10)” value falls from 0.496 to 0.0367.

“CACACGCCTTGGGTTCTAACCTGTTGCCT (site CACACGCCTAG)” and “CACACGCCTTGGGTTCTAACCTGTTGCCT (site CTCACGCCTAA)” are within 0.2 log units of each other in “recombinant barcode read abundance (log10)” value: 0.278 for the first, 0.0913 for the second.

Going from “CACATATCTTGGGTTCTAACCTGTTGCAT (site CACATATCTAT)” to “CACATATCTTGGGTTCTAACCTGTTGCAT (site CACATCTCTAG)”, the “recombinant barcode read abundance (log10)” value falls from 1.49 to 0.123.

Compared with “CACCAATCTTGGGTTCTAACCTGTTGCCT (site CACCAATCTAG)”, “CACCAATCTTGGGTTCTAACCTGTTGCCT (site CACGCATCTAG)” is lower in “recombinant barcode read abundance (log10)” value: 0.525 for the first, 0.269 for the second.

Going from “CACCAGCCTTGGGTTCTAACCTGTTGCAT (site AGGTCCGCTTA)” to “CACCAGCCTTGGGTTCTAACCTGTTGCAT (site CACCAGCCTAT)”, the “recombinant barcode read abundance (log10)” value rises from 0.167 to 1.98.

Compared with “CACCCCTCTTGGGTTCTAACCTGTTGCCG (site ATGAGGACTAC)”, “CACCCCTCTTGGGTTCTAACCTGTTGCCG (site CACCCCTCTCG)” is higher in “recombinant barcode read abundance (log10)” value: 0.0851 for the first, 2.44 for the second.

First: CACCGTCCTTGGGTTCTAACCTGTTGCAT (site CACCGTCCTAC)
Second: CACCGTCCTTGGGTTCTAACCTGTTGCAT (site CACCGTCCTAT)
The “recombinant barcode read abundance (log10)” value of the first is lower: 0.0846 for the first, 1.61 for the second.

Going from “CACCTGTCTTGGGTTCTAACCTGTTGCCG (site CACCTGACTCG)” to “CACCTGTCTTGGGTTCTAACCTGTTGCCG (site CACCTGTCTCG)”, the “recombinant barcode read abundance (log10)” value rises from 0.151 to 1.94.

First: CACGCGTCTTGGGTTCTAACCTGTTGCTG (site CACGCGTCTCA)
Second: CACGCGTCTTGGGTTCTAACCTGTTGCTG (site CACGCTTCTTA)
The “recombinant barcode read abundance (log10)” value of the first is higher: 0.746 for the first, 0.0288 for the second.

Going from “CACGCTCCTTGGGTTCTAACCTGTTGCGT (site ACTTGAGCTCT)” to “CACGCTCCTTGGGTTCTAACCTGTTGCGT (site CACGCTCCTAC)”, the “recombinant barcode read abundance (log10)” value rises from 0.119 to 0.656.

Compared with “CACGGGTCTTGGGTTCTAACCTGTTGCTT (site CACGGGTCTAA)”, “CACGGGTCTTGGGTTCTAACCTGTTGCTT (site CTCCGGTCTAA)” is lower in “recombinant barcode read abundance (log10)” value: 2.32 for the first, 0.209 for the second.

First: CACTACCCTTGGGTTCTAACCTGTTGCTT (site AGGCCGTCTCC)
Second: CACTACCCTTGGGTTCTAACCTGTTGCTT (site CACTACCCTAA)
The “recombinant barcode read abundance (log10)” value of the first is lower: 0.0811 for the first, 1.24 for the second.
